Source: paper PMC6315057, “Industrial scale high-throughput screening delivers multiple fast acting macrofilaricides” (Nature Communications, 2019)
Like-named read-outs stand apart in the source and are kept apart here.

Legend:
[1] = test system: Wolbachia in C6/36 (wAlbB) cells; assay: Confirmatory re-assessment in the insect cell screen (cell assay EC50); type: cell-based, Wolbachia pipientis wAlbB (in Aedes albopictus C6/36 cells); details: for EC50: Wolbachia, C6/36, insect cell screen, re-sourced or re-synthesised samples
Source text: To further validate the hit molecules from these 9 clusters, samples were sourced either from the AstraZeneca compound inventory or through re-synthesis. All 18 samples were characterised by nuclear magnetic resonance (NMR) and mass spectroscopy to confirm their chemical structures and by HPLC/LCMS to establish their purity (Supplementary Table 5 and Supplementary Data 1). These samples were also subject to confirmatory re-assessment in both the insect cell screen and Mf assays for anti-Wolbachia potency alongside confirmation of DMPK properties (LogD7.4, aqueous solubility in pH 7.4 PBS, human microsomal turnover, rat hepatocyte turnover and human plasma protein binding) (Fig. 4, Supplementary Figure 1 and Supplementary Table 4).
(§1) On day 0, a single cryovial was recovered and the cells washed before being transferred to a T225 cm^2 flask. After a 7-day recovery Wolbachia infection level (quality control (QC)) was checked by SYTO®11 DNA staining of both the host cell nuclei and intracellular Wolbachia. The end-point read out from the Operetta® high content imaging system (Perkin Elmer) was the percentage of cells infected with Wolbachia. This was obtained from cytoplasm texture analysis by the associated Harmony® software. Cells with a >50% of the population infected with Wolbachia were classed as having a good Wolbachia level and therefore used for screening through addition of 2000 cells per well into assay ready 384-well plates containing the test compounds. […] Each plate included on-board controls; vehicle/DMSO (total/maximum Wolbachia signal) or doxycycline 5 µM (null/minimum Wolbachia signal), resulting in single shot screening of 352 compounds per plate for the primary screen. […] QC plates were also created including full columns of the following controls; DMSO (total/max), 5 μM doxycycline (null/min), as well as 50 nM doxycycline (reference/medium Wolbachia signal). Daily batches contained ~150 compound plates in addition to the QC plates. Each compound plate was foil sealed before incubation for 7 days at 26 °C, 95% humidity and atmospheric air.

[2] = test system: Wolbachia in C6/36 (wAlbB) cells; assay: Secondary concentration response HTS (IC50) anti-Wolbachia screen in C6/36 (wAlbB) insect cells; type: cell-based, Wolbachia pipientis wAlbB (in Aedes albopictus C6/36 cells); details: Wolbachia, 168 h, 7-day incubation, 10-point concentration range
Description: Initially C6/36 (wAlbB) cells (insect cells stably infected with the Wolbachia target) from a single cryopreserved batch were recovered over 7 days prior to plating into 384-well assay ready plates (containing the test compounds), using a semi-automated process allowing for daily batches of ~150 plates, set up 4 days per week for 8 weeks. After a 7-day incubation period with the test compounds the plates were moved into the second fully automated stage (using the Agilent Technologies BioCel system) involving formaldehyde fixation, DNA staining of the insect cell nuclei (Hoechst) for toxicity analysis and antibody staining specific to the intracellular Wolbachia (wBmPAL primary antibody and far-red secondary antibody). In the final stage the fixed and stained plates from stage 2 were processed through automated data acquisition (High Res Biosolutions system, incorporating EnVision™ and acumen® plate readers). This industry standardised assay was then used to screen AstraZeneca’s full library of 1.3 million compounds within 10 weeks. In total this HTS included 30 × 3 week assays covering 3835 × 384-well plates. This primary HTS generated 20,255 hits defined as >80% reduction in Wolbachia with <60% toxicity to the host insect cell (eliminating false positives). This represents an overall hit rate of 1.56%. These compounds are depicted in chemical space in Fig. 2 (black points)[21].
The mosquito (Aedes albopictus) derived cell line C6/36 (ATCC® CRL 1660), stably infected with Wolbachia pipientis wAlbB (C6/36(wAlbB)), was maintained in Leibovitz L15 medium containing 2 mM L-glutamine, 1% nonessential amino acids, 2% tryptose phosphate broth and 20% heat-inactivated foetal bovine serum (FBS) at 26 °C[18]. This screen exclusively used cells from the large-scale cryopreserved batch produced as part of this campaign by culturing the cells at scale before cryopreservation (90% FBS and 10% DMSO). This produced a cell bank of 190 × 1 ml cryovials containing 3 × 10^7 cells per vial.
as §1
After 7 days of drug incubation, the plates were loaded into the fully automated BioCel system which performed the following additions; fixation and DNA staining (1.8% formaldehyde + 0.6 µg/ml Hoechst 33342, 20 min), permeabilisation (80 μl of PBS + 0.25% Triton-X 100, 30 min), blocking (PBS + 6% BSA, 40 min), overnight incubation in the Wolbachia-specific anti-wBmPAL primary antibody[34] […]

[3] = Human microsome clearance; type: in vitro ADME; details: for microsomal CLint: human, human microsomes
Source text: The DMPK data used for triaging compounds, including LogD7.4, aqueous solubility, plasma protein binding, microsome and hepatocyte clearance measurements, were generated using the standard AstraZeneca UK high-throughput platform[37],[38].

[4] = test system: Wolbachia within Brugia malayi Mf; assay: B. malayi microfilarial (Mf) in vitro anti-Wolbachia assay (wsp:gst qPCR); type: cell-based
Description: The Mf were obtained by peritoneal lavage, using a catheter, of gerbils (Meriones unguiculatus) harbouring a patent infection of B. malayi. Mf were purified using a PD-10 desalting column (Fisher), centrifuged (311 RCF for 5 min at room temperature) before the addition of 8000 Mf/well of a 96-well plate (100 µl per well) in complete media consisting of RPMI supplemented with 10% FBS, 1% penicillin streptomycin and 1% amphotericin B. […] Each plate contained doxycycline (5 µM) and DMSO controls. After incubation at 37 °C for 6 days in 5% CO2, visual assessment of Mf motility was performed and scored from 0 to 4 per well (where 0 = no movement and 4 = highly motile). DNA extraction per sample was performed using the QIAmp DNA Mini Kit before quantitative PCR was performed to obtain the ratio of Wolbachia Surface Protein gene copy number (wsp) to Glutathione S-Transferase gene copy number (gst)[36]. The DNA was amplified using the primers as indicated in Supplementary Table 6.
The wsp:gst ratio data allowed for normalisation of the Wolbachia level to the Mf biomass for each well. The change in wsp:gst for each compound compared to the DMSO control was calculated before normalisation to the onboard doxycycline control to allow for inter-assay comparison.

[5] = Brugia malayi, 144 h, B. malayi Mf, 6 days, read-out: Mf EC50
[6] = category bounds in the picture of Fig. 4, read-out: Mf EC50 (category given in Fig. 4)

| microsomal CLint [3] [µL/min/mg] | Metabolic stability (in words) ([3]; in vitro, system not given) | EC50 [4, 5] [nM] | EC50 [4, 6] [nM] | Human microsomal stability (in words) [3] | SMILES | EC50 [1] [nM] | IC50 [2] [nM] | Mf in vitro potency (in words) [4] | Insect cell screen activity (in words) [1] |
| --- | --- | --- | --- | --- | --- | --- | --- | --- | --- |
| 39.5 | moderate | ~271 | 200 to 1000 | – | Cc1nc(C(=O)NC(C)c2ccc(F)cc2)c(NC(=O)Cc2ccccc2)[nH]1 (stereo not drawn) [5A, N-(1-(4-fluorophenyl)ethyl)-2-methyl-5-(2-phenylacetamido)-1H-imidazole-4-carboxamide] | 296 | 594 | comparatively good | – |
| 59.7 | – | ~183 | < 200 | – | CC1COCCN1c1cc(OCc2ccccc2)nc(-c2nccn2C)n1 (stereo not drawn) [3A, 4-(6-(benzyloxy)-2-(1-methyl-1H-imidazol-2-yl)pyrimidin-4-yl)-3-methylmorpholine] | 662 | 968 | – | – |
| 41.2 | – | 164 | < 200 | – | COc1ccc(CC(=O)Nc2[nH]nc(C)c2-c2ccccc2)c(Cl)c1 [2A, 2-(2-chloro-4-methoxyphenyl)-N-(3-methyl-4-phenyl-1H-pyrazol-5-yl)acetamide] | 242 | 2390 | – | – |
| 211 | – | ~161 | < 200 | – | Cc1nccc(N2CCC(C(=O)N(C)CCN(C)S(=O)(=O)c3ccc(Br)cc3)CC2)n1 [1A, N-(2-((4-bromo-N-methylphenyl)sulfonamido)ethyl)-N-methyl-1-(2-methylpyrimidin-4-yl)piperidine-4-carboxamide] | 192 | 184 | – | – |
| 92 | – | ~219 | 200 to 1000 | poor | CCc1ccc(CN2CCCC2c2nc(C(=O)N(C)C)cs2)s1 (stereo not drawn) [4A, 2-(1-((5-ethylthiophen-2-yl)methyl)pyrrolidin-2-yl)-N,N-dimethylthiazole-4-carboxamide] | 41 | 145 | good | strong |
